Consider 35 compounds from patent publication US10214531B2 (Institute for Drug Discovery, LLC, priority 2013, dated 2019).

Structures can show the parent of a compound that is named as a salt.

For orientation: IC50 means the concentration needed to halve the response being measured.

The test deals with recombinant human AMCase (Homo sapiens, UniProt Q9BZP6). Put plainly: Human AMCase Activity Assay. The test is classed as biochemical. The following applies: recombinant hAMCase, 4-methylumbelliferyl chitobioside substrate, citrate buffer pH 5.2, 37° C., 60 minutes; read-out: Activity (IC50 value key). The method, then: Human AMCase Activity Assay
Sequence of recombinant human AMCase (Q9BZP6 22-476): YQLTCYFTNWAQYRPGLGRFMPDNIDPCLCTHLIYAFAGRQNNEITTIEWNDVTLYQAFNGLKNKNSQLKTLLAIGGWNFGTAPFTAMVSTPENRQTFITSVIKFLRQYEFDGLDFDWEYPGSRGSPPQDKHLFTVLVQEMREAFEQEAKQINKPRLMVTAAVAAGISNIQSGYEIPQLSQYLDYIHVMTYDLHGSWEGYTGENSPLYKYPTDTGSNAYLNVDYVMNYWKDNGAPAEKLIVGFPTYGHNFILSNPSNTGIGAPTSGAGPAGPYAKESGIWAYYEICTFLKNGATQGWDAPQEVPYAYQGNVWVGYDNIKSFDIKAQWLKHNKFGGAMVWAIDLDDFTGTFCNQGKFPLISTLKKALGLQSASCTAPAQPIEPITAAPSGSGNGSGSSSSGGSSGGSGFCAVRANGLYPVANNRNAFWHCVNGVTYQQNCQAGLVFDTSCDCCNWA
The assay was run in the 96-well plate format, each reaction in the total volume of 100 μl. 4-Methylumbelliferyl B-D-N,N′ diacetylchitobioside hydrate was used as a substrate for the enzyme. Upon hydrolysis by AMCase, the substrate releases 4-methylumbelliferyl (4MU), when ionized in basic pH, emits fluorescence of 460 nm.
Briefly, 40 μl of a substrate was added to each well, followed by 10 μl of compound dilution and 50 μl of hAMCase recombinant enzyme solution. The reaction was carried out in citrate buffer, pH 5.2, in the dark, at 37° C. for 60 minutes with shaking.
On to `COc1ccc(OCCN2CCN(c3nc(N)n[nH]3)CC2)cc1` [Example 81, 5-(4-(2-(4-methoxyphenoxy)ethyl)piperazin-1-yl)-1H-1,2,4-triazol-3-amine], for which the IC50 is 10000 to 100000 nM.

On to `Nc1n[nH]c(N2CCN(CCOc3ccc4[nH]ccc4c3)CC2)n1` [Example 82, 5-(4-(2-((1H-indol-5-yl)oxy)ethyl)piperazin-1-yl)-1H-1,2,4-triazol-3-amine], for which the IC50 is greater than 100000 nM.

In the case of `Nc1n[nH]c(N2CCN(CCOc3ccccc3-c3ccccc3)CC2)n1` [Example 83, 5-(4-(2-([1,1′-biphenyl]-2-yloxy)ethyl)piperazin-1-yl)-1H-1,2,4-triazol-3-amine], the IC50 was in the range of 10000 to 100000 nM.

Turning to `CC(C)c1ccccc1OCCN1CCN(c2nc(N)n[nH]2)CC1` [Example 84, 5-(4-(2-(2-isopropylphenoxy)ethyl)piperazin-1-yl)-1H-1,2,4-triazol-3-amine], the IC50 lay within 10000 to 100000 nM.

As for `Nc1n[nH]c(N2CCN(CCOc3ccccc3F)CC2)n1` [Example 85, 5-(4-(2-(2-fluorophenoxy)ethyl)piperazin-1-yl)-1H-1,2,4-triazol-3-amine], the IC50 lay in the range of 10000 to 100000 nM.

With `Nc1n[nH]c(N2CCN(CCOc3cccc(Cl)c3)CC2)n1` [Example 86, 5-(4-(2-(3-chlorophenoxy)ethyl)piperazin-1-yl)-1H-1,2,4-triazol-3-amine], the IC50 was in the range of 10000 to 100000 nM.

As to `Cc1cccc(Cl)c1OCCN1CCN(c2nc(N)n[nH]2)CC1` [Example 87, 5-(4-(2-(2-chloro-6-methylphenoxy)ethyl)piperazin-1-yl)-1H-1,2,4-triazol-3-amine], the IC50 fell in the range of 10000 to 100000 nM.

For the compound `Nc1n[nH]c(N2CCC(NCCc3ccc(Cl)cc3)CC2)n1` [Example 88, 1-(3-amino-1H-1,2,4-triazol-5-yl)-N-(4-chlorophenethyl)piperidin-4-amine], the IC50 fell in the range of 1000 to 10000 nM.

In the case of `C[C@H](CN1CCN(c2nc(N)n[nH]2)CC1)Oc1ccc(Br)cc1` [Example 90, (R)-5-(4-(2-(4-bromophenoxy)propyl)piperazin-1-yl)-1H-1,2,4-triazol-3-amine], the IC50 was in the range of 100 to 1000 nM.

Consider `CN(Cc1ccc(Cl)cc1)C(=O)C1(C)CCN(c2nc(N)n[nH]2)CC1` [Example 91, 1-(3-amino-1H-1,2,4-triazol-5-yl)-N-(4-chlorobenzyl)-N,4-dimethyl piperidine-4-carboxamide], for which the IC50 was greater than 100000 nM.

Regarding `CC(C)(C)CCN(CCc1ccc(Cl)cc1)C1CCN(c2nc(N)n[nH]2)CC1` [Example 93, 1-(3-amino-1H-1,2,4-triazol-5-yl)-N-(4-chlorophenethyl)-N-(3,3-dimethylbutyl) piperidin-4-amine], the IC50 is less than 100 nM.

As to `CC(C)(C)CN(CCc1ccc(Cl)cc1)C1CCN(c2nc(N)n[nH]2)CC1` [Example 94, 1-(3-amino-1H-1,2,4-triazol-5-yl)-N-(4-chlorophenethyl)-N-neopentyl-piperidin-4-amine dihydrochloride], the IC50 was less than 100 nM.

`Nc1n[nH]c(N2CCC(N(CCc3ccc(Br)cc3)Cc3ccccc3Cl)CC2)n1` [Example 98, 1-(3-amino-1H-1,2,4-triazol-5-yl)-N-(4-bromophenethyl)-N-(2-chlorobenzyl) piperidin-4-amine]: the IC50 was less than 100 nM.

Regarding `Nc1n[nH]c(N2CCC(N(CCc3ccc(Cl)cc3)Cc3cccc(CO)c3)CC2)n1` [Example 100, (3-(((1-(3-amino-1H-1,2,4-triazol-5-yl)piperidin-4-yl)(4-chlorophenethyl)amino)methyl)phenyl)methanol], the IC50 was less than 100 nM.

For the compound `Cc1ccc(CN(CCc2ccc(Cl)cc2)C2CCN(c3nc(N)n[nH]3)CC2)cc1` [Example 102, 1-(3-amino-1H-1,2,4-triazol-5-yl)-N-(4-chlorophenethyl)-N-(4-methylbenzyl) piperidin-4-amine], the IC50 was less than 100 nM.

For the compound `C[C@@H](c1ccccc1)N(CCc1ccc(Cl)cc1)C1CCN(c2nc(N)n[nH]2)CC1` [Example 103, (S)-1-(3-amino-1H-1,2,4-triazol-5-yl)-N-(4-chlorophenethyl)-N-(1-phenylethyl) piperidin-4-amine], the IC50 lay in the range of 100 to 1000 nM.

For `Nc1n[nH]c(N2CCC(N(CCc3ccc(Cl)cc3)Cc3ccc(C(F)(F)F)cc3)CC2)n1` [Example 104, 1-(3-amino-1H-1,2,4-triazol-5-yl)-N-(4-chlorophenethyl)-N-(4-(trifluoromethyl)benzyl)piperidin-4-amine], the IC50 is less than 100 nM.

For `Nc1n[nH]c(N2CCC(N(CCc3ccc(Br)cc3)Cc3cccc4ccncc34)CC2)n1` [Example 105, 1-(3-amino-1H-1,2,4-triazol-5-yl)-N-(4-bromophenethyl)-N-(isoquinolin-8-ylmethyl) piperidin-4-amine], the IC50 is less than 100 nM.

For `Nc1n[nH]c(N2CCC(N(CCc3ccc(Cl)cc3)[C@@H](CO)c3ccccc3)CC2)n1` [Example 107, (R)-2-((1-(3-amino-1H-1,2,4-triazol-5-yl)piperidin-4-yl)(4-chlorophenethyl)amino)-2-phenylethan-1-ol], the half-inhibitory concentration (IC50) lay within 100 to 1000 nM.

Turning to `Nc1n[nH]c(N2CCC(N(CCc3ccc(Cl)cc3)Cc3ccncc3)CC2)n1` [Example 108, 1-(3-amino-1H-1,2,4-triazol-5-yl)-N-(4-chlorophenethyl)-N-(pyridin-4-ylmethyl) piperidin-4-amine], the IC50 is less than 100 nM.

For `COC[C@@H](c1ccccc1)N(CCc1ccc(Cl)cc1)C1CCN(c2nc(N)n[nH]2)CC1` [Example 109], the IC50 is 10000 to 100000 nM.

With `Nc1nc(N2CCC(N(CCc3ccc(Cl)cc3)Cc3cccc(Cl)c3)CC2)n[nH]1` [Example 110, 1-(3-amino-1H-1,2,4-triazol-5-yl)-N-(3-chlorobenzyl)-N-(4-chlorophenethyl) piperidin-4-amine dihydrochloride], the IC50 is less than 100 nM.

Turning to `Nc1n[nH]c(N2CCC(N(CCc3ccc(Cl)cc3)Cc3ccc(-c4ccccc4)cc3)CC2)n1` [Example 111, N-([1,1′-biphenyl]-4-ylmethyl)-1-(3-amino-1H-1,2,4-triazol-5-yl)-N-(4-chlorophenethyl) piperidin-4-amine], the IC50 is less than 100 nM.

As to `Nc1n[nH]c(N2CCC(N(CCc3ccc(Cl)cc3)Cc3ccc4ccccc4c3)CC2)n1` [Example 112, 1-(3-amino-1H-1,2,4-triazol-5-yl)-N-(4-chlorophenethyl)-N-(naphthalen-2-ylmethyl) piperidin-4-amine], the IC50 is less than 100 nM.

Turning to `Nc1n[nH]c(N2CCC(N(CCc3ccc(Cl)cc3)Cc3ccccc3C(F)(F)F)CC2)n1` [Example 113, 1-(3-amino-1H-1,2,4-triazol-5-yl)-N-(4-chlorophenethyl)-N-(2-(trifluoromethyl)benzyl)piperidin-4-amine], the IC50 was less than 100 nM.

Turning to `Nc1n[nH]c(N2CCC(N(CCc3ccc(Cl)cc3)Cc3ccccc3-c3ccccc3)CC2)n1` [Example 114, N-([1,1′-biphenyl]-2-ylmethyl)-1-(3-amino-1H-1,2,4-triazol-5-yl)-N-(4-chlorophenethyl) piperidin-4-amine], the IC50 was less than 100 nM.

On to `Nc1n[nH]c(N2CCC(N(CCc3ccc(Cl)cc3)Cc3ccc(-c4ccn[nH]4)cc3)CC2)n1` [Example 115, N-(4-(1H-pyrazol-5-yl)benzyl)-1-(3-amino-1H-1,2,4-triazol-5-yl)-N-(4-chlorophenethyl) piperidin-4-amine dihydrochloride], for which the IC50 was less than 100 nM.

For the compound `Nc1n[nH]c(N2CCC(N(CCc3ccc(Cl)cc3)Cc3cnc4ccccc4n3)CC2)n1` [Example 116, 1-(3-amino-1H-1,2,4-triazol-5-yl)-N-(4-chlorophenethyl)-N-(quinoxalin-2-ylmethyl) piperidin-4-amine dihydrochloride], the IC50 fell in the range of 100 to 1000 nM.

As to `C[C@H](c1ccccc1)N(CCc1ccc(Cl)cc1)C1CCN(c2nc(N)n[nH]2)CC1` [Example 118, (R)-1-(3-amino-1H-1,2,4-triazol-5-yl)-N-(4-chlorophenethyl)-N-(1-phenylethyl)piperidin-4-amine], the IC50 is less than 100 nM.

With `Nc1n[nH]c(N2CCC(N(CCc3ccc(Cl)cc3)Cc3ccncc3F)CC2)n1` [Example 119, 1-(3-amino-1H-1,2,4-triazol-5-yl)-N-(4-chlorophenethyl)-N-((3-fluoropyridin-4-yl)methyl)piperidin-4-amine], the IC50 is less than 100 nM.

`Nc1n[nH]c(N2CCC(N(CCc3ccc(Cl)cc3)Cc3ccc(F)cc3)CC2)n1` [Example 123, 1-(3-amino-1H-1,2,4-triazol-5-yl)-N-(4-chlorophenethyl)-N-(4-fluorobenzyl)piperidin-4-amine]: the IC50 was less than 100 nM.

Consider `Cc1ccccc1CN(CCc1ccc(Cl)cc1)C1CCN(c2nc(N)n[nH]2)CC1` [Example 125, 1-(3-amino-1H-1,2,4-triazol-5-yl)-N-(4-chlorophenethyl)-N-(2-methylbenzyl)piperidin-4-amine], for which the half-maximal inhibitory concentration (IC50) was less than 100 nM.

On to `Nc1n[nH]c(N2CCC(N(CCc3ccc(Cl)cc3)Cc3ccc(Cl)c(C(F)(F)F)c3)CC2)n1` [Example 126, 1-(3-amino-1H-1,2,4-triazol-5-yl)-N-(4-chloro-3-(trifluoromethyl)benzyl)-N-(4-chlorophenethyl)piperidin-4-amine], for which the IC50 was less than 100 nM.

For `Nc1n[nH]c(N2CCC(N(CCc3ccc(Cl)cc3)Cc3ccccc3Br)CC2)n1` [Example 127, 1-(3-amino-1H-1,2,4-triazol-5-yl)-N-(2-bromobenzyl)-N-(4-chlorophenethyl)piperidin-4-amine], the IC50 is less than 100 nM.

Regarding `Nc1n[nH]c(N2CCC(N(CCc3ccc(Br)cc3)Cc3cccc4ccccc34)CC2)n1` [Example 129, 1-(3-amino-1H-1,2,4-triazol-5-yl)-N-(4-bromophenethyl)-N-(naphthalen-1-ylmethyl)piperidin-4-amine], the IC50 was less than 100 nM.
